Counter-ions that a name gives are not always drawn.
Key:
Assay in all cases: Citrate titration of purified FRET nanosensors in a fluorescence plate reader (excitation 433 nm, Venus/CFP emission ratio 530/488 nm) in 20 mM MOPS, 20 mM NaCl, pH 7, fitted to a single site binding curve.
Conditions in all cases: n = 2
[1] = target: T1, CIT0.5m (Klebsiella pneumoniae, UniProt P52687, K120A/R92A)
T1 construct: gene citA; CitA residues 6-130 inserted between CFP and Venus (pGW1, pRSET-based), His-tag purified
T1 sequence (P52687 49-173 R92A/K120A): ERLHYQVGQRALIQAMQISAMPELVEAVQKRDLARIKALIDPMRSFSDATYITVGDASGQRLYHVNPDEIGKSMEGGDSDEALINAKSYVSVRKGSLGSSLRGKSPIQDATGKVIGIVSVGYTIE
Description: (§1) Next, we thoroughly tested the newly created nanosensor CFP-CitA6-130-Venus in vitro. We determined the binding properties by mixing the sensor with 0.5 to 1000 µM citrate. The obtained ratios were fitted to a single site binding curve as described in the methods section. We determined the KD, the ligand concentration at half-maximal saturation, to be 8 µM, which is very close to the value determined by Gerharz et al (2003) using isothermal titration calorimetry to characterize the purified protein [25]. The reproducibility between different batches of proteins extraction was excellent, with ratios in general not differing by more than 5%. A crucial feature for in vivo application is specificity. We thus exposed the nanosensor to a variety of structurally related organic acids including isocitrate, aconitate, α-ketoglutarate, succinate and pyruvate in presence or absence of citrate. […] In the case of isocitrate, we observed an effect only at concentrations above 1 mM (Figure 2 B) in absence of citrate, which by far exceeds the concentration typically observed by metabolomics in microbes. Also, the apparent affinity for citrate was not modified in the presence of isocitrate or aconitate (data not shown), which excludes competitive binding. After confirming the high specificity of the sensor we tested pH stability, which is crucial when aiming to study certain intracellular compartments (Figure S2 A). […] Therefore, the new nanosensor should be functional in most compartments, however it is not suitable for highly acidic compartments such as endosomes or vacuoles. We also tested the effect of high salt concentrations as typically observed in cells. […] Thus, as has been previously observed when comparing nanosensors in vitro and in vivo [13], [23], we can expect the observed fluorescence intensity ratio in vivo to be lower than under assay conditions. The KD and the dynamic range, however, were not altered, and thus relative changes in citrate concentrations can still be monitored in vivo.
(§2) The natural receptor CitA is highly sensitive and detects low concentrations of citrate in the periplasmic environment and thus has a very high affinity for its substrate. For application as an intracellular sensor a saturation concentration of approximately 100 µM appeared too low given the estimates of intracellular concentrations of citrate by metabolomics approaches in the mid micromolar to low millimolar range [3]. We therefore engineered the affinity of the nanosensor for in vivo applications. Gerharz et al systematically investigated residues of the CitA sensor domain involved in citrate binding. Replacement of positively charged amino acids with alanine led to decreased affinity. We chose five of the reported point mutations and introduced them into the sensor CitA6-130. We determined binding constants and total FRET ratios from two independent extractions (Table 1). The binding constants were qualitatively in good agreement with the observations of Gerharz et al., though in some cases we observed a much larger decrease of affinity. This might be due to the different measurement techniques, a different behaviour of the truncated and sandwiched protein compared to the isolated full-length protein, or to the minor differences we found in the sequence compared to the published Klebsiella CitA gene (sequence of the final sensor can be found in Document S1). […] Decreasing the affinity for the designated substrate bears the risk of also reducing specificity. We therefore tested all mutated sensors for binding of isocitrate and aconitate, the most closely related compounds. […] Also, pH and salt sensitivity were similar to the original sensor (data not shown).
(§3) All in vitro assays were performed in a TECAN Infinite 200 plate reader (TECAN, Austria) in 96 well format (modified from). Proteins, reagents and ligands were dissolved in assay buffer (20 mM Mops, 20 mM NaCl, pH 7 unless specified otherwise). […]

[2] = target: T2, CIT1.8m (Klebsiella pneumoniae, UniProt P52687, R150A)
T2 construct: gene citA; CitA residues 6-130 inserted between CFP and Venus (pGW1, pRSET-based), His-tag purified
T2 sequence (P52687 49-173 R150A): T1 sequence (P52687 49-173 R92A/K120A)
Description: as §1, §2, §3

[3] = target: T3, CIT32μ (Klebsiella pneumoniae, UniProt P52687, K135A)
T3 construct: gene citA; CitA residues 6-130 inserted between CFP and Venus (pGW1, pRSET-based), His-tag purified
T3 sequence (P52687 49-173 K135A): T1 sequence (P52687 49-173 R92A/K120A)
Description: as §1, §2, §3

[4] = target: T4, CIT50μ (Klebsiella pneumoniae, UniProt P52687, R92A)
T4 construct: gene citA; CitA residues 6-130 inserted between CFP and Venus (pGW1, pRSET-based), His-tag purified
T4 sequence (P52687 49-173 R92A): T1 sequence (P52687 49-173 R92A/K120A)
Description: as §1, §2, §3

[5] = target: T5, CIT8μ (CFP-CitA6-130-Venus) (Klebsiella pneumoniae, UniProt P52687)
T5 construct: gene citA; CitA residues 6-130 inserted between CFP and Venus (pGW1, pRSET-based), His-tag purified
T5 sequence (P52687 50-174): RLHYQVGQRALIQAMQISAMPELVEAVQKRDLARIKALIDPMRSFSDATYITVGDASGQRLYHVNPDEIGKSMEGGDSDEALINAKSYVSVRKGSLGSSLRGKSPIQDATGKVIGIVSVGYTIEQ
Description: as §1, §2, §3

[6] = target: T6, CIT96μ (Klebsiella pneumoniae, UniProt P52687, K120A)
T6 construct: gene citA; CitA residues 6-130 inserted between CFP and Venus (pGW1, pRSET-based), His-tag purified
T6 sequence (P52687 49-173 K120A): T1 sequence (P52687 49-173 R92A/K120A)
Description: as §1, §2, §3

`O=C(O)CC(O)(CC(=O)O)C(=O)O` [citrate, citrate (citric acid)] gave a Kd [1] of 470 µM, a Kd [2] of 1.76 mM and a Kd [3] of 32 µM. The Kd [4] was 50 µM, the Kd [5] was 8 µM and the Kd [6] was 96 µM.

Source: article PMC3229521, “Engineering Genetically Encoded Nanosensors for Real-Time In Vivo Measurements of Citrate Concentrations” (PLoS ONE, 2011)
